Reference: ChEMBL document CHEMBL3886610, “Perfluorinated 5,6-dihydro-4H-1,3-oxazin-2-amine compounds as beta-secretase inhibitors and methods of use” (2016)

Tests used:
Beta-secretase 1 [1] = molecular target: T1, Beta-secretase 1 (Homo sapiens, UniProt P56817); assay: In Vitro BACE Cell-Based Assay: The cell-based assay measures inhibition or reduction of Aβ40 in conditioned medium of test compound treated cells expressing amyloid precursor protein. Cells stably expressing Amyloid Precursor Protein (APP) were plated at a density of 40K cells/well in 96 well plates (Costar). The cells were cultivated for 24 hours at 37° C. and 5% CO2 in DMEM supplemented with 10% FBS. The test compounds were then added to cells in 10-point dose response concentrations with the starting concentration being either 100 uM or 10 uM. The compounds were diluted from stock solutions in DMSO and the final DMSO concentration of the test compounds on cells was 0.1%. After 24 h of incubation with the test compounds the supernatant conditioned media was collected and the Aβ 40 levels were determined using a sandwich ELISA.
Beta-secretase 1 [2] = molecular target: T1, Beta-secretase 1; assay: In Vitro Enzymatic BACE FRET Assay: The assay buffer used in this screen is 0.05 M acetate, pH 4.2, 10% DMSO final, 100 uM genapol (which is a nonionic detergent, below its Critical Micelle Concentration). The Beta Secretase enzyme (0.2 nM) is pre-incubated for one hour with inhibitors, typically in about 1 uL of DMSO according to a serial dilution, are added thereto. This assay is effectively started by the addition of FRET substrate (50 nM) and the combination is incubated for one hour. The FRET assay is terminated with by addition of Tris buffer, which raises the pH to neutrality, and the fluorescence is determined. The FRET substrate is a peptide with commercially available fluorophore and quencher, on opposite sides of the BACE cleavage site. Proteolytic cleavage of the FRET substrate releases quenching of fluorescence (excitation 488 nm and […]).
Cathepsin D = Cathepsin D (Homo sapiens, UniProt P07339); assay: In Vitro Enzymatic Cathepsin D FRET Assay: Recombinant Cat D was expressed in CHO cells. The assay buffer for CathepsinD is 0.05 M citrate pH 3.5, 10% DMSO final, 5 mM CHAPS. The Cat D enzyme (9 nM) is pre-incubated for one hour with inhibitors, typically in about 1 uL of DMSO according to a serial dilution, is added thereto. The assays are effectively started by the addition of different FRET substrates (20 nM for Cat D) and the combination is incubated for one hour. The FRET assay is terminated with by addition of Tris buffer, which raises the pH to neutrality, and the fluorescence is determined. The FRET substrate is a peptide with commercially available fluorophore and quencher, on opposite sides of the BACE cleavage site. […] Proteolytic cleavage of the FRET substrate releases quenching of fluorescence (Cat D excitation 500 nm and emission 580 nm).; assay type: cell-based
Chain of Cathepsin D (P07339 65-162 limits assumed): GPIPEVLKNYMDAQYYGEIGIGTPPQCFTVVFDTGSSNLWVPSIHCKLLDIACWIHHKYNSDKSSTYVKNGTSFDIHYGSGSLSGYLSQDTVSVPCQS
Chain of Cathepsin D (P07339 169-412 limits assumed): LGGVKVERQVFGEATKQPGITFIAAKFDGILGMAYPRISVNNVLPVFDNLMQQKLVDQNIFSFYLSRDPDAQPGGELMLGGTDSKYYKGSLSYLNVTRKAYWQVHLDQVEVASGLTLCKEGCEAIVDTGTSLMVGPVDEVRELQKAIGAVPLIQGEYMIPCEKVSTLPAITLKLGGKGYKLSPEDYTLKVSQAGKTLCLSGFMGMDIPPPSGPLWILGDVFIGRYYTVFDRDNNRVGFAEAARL

T1 sequence (P56817 whole entry): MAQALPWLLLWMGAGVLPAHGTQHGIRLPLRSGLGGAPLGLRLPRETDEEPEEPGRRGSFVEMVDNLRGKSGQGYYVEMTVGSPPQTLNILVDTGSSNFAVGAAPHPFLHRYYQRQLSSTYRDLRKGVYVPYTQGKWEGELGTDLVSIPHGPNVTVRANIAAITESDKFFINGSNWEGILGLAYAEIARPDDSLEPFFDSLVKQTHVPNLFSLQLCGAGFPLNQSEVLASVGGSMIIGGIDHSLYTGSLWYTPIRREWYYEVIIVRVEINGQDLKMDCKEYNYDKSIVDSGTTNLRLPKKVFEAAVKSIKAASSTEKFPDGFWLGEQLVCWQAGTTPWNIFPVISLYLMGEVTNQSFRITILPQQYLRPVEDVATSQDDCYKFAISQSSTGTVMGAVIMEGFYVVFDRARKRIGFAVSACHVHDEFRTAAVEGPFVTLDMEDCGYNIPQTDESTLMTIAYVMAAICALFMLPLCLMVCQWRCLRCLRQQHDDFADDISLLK

IC50 (Beta-secretase 1 [1])	IC50 (Beta-secretase 1 [2])	IC50 (Cathepsin D)	IC50 (Cathepsin D; cho)	Compound
0.012 µM	0.01 µM	1190 µM		C#CCOc1ccc(C(=O)Nc2cc(F)c(F)c([C@]3(C)C[C@@H](C(F)(F)F)OC(N)=N3)c2)nc1
0.487 µM	0.12 µM		> 400 µM	Cc1cc(OCC2CC2)cnc1C(=O)Nc1ccc(F)c([C@]2(CF)C[C@@H](C(F)(F)F)OC(N)=N2)c1

Compound	IC50 (Beta-secretase 1 [1])	IC50 (Beta-secretase 1 [2])	IC50 (Cathepsin D)	IC50 (Cathepsin D; cho)
COC(=O)c1ccnc(Oc2ccc(F)c([C@]3(CF)C[C@@H](C(F)(F)F)OC(N)=N3)c2)c1	3.56 µM			
